# Assay results reported in patent publication US20230181659A1, “PHAGE-MEDIATED DELIVERY OF GENES TO GUT MICROBIOME” (priority 2020, published 2023).
# Columns and labels:
# Sm^R MG1655 E. coli = test: Selection of resistant E. coli subpopulation in mouse gut with β-lactam in drinking water; format: in vivo; conditions: mice on water containing streptomycin and ampicillin; gavaged 99.9% Amp^S / 0.1% Amp^R; within 1-2 days
# Description: Mouse experiments with E. coli engraftment, antibiotic water, and phage treatment. Animal procedures were approved by the University of California, San Francisco (UCSF) Institutional Animal Care and Use Committee (IACUC), and animal experiments performed were in compliance with ethical regulations. Specific pathogen free female BALB/c mice from the vendor Taconic were used for all mouse experiments. Streptomycin water was prepared by dissolving USP grade streptomycin sulfate (VWR 0382) in autoclaved tap water to a final concentration of 5 mg/ml and passing through 0.45 μm filtration units. Mice were provided streptomycin water for 1 day, followed by oral gavage of 0.2 ml containing approximately 10^9 CFU of streptomycin-resistant E. coli. Mice were kept on streptomycin water thereafter to maintain colonization. For selection with β-lactam antibiotics, USP grade ampicillin sodium salt (Teknova A9510) or USP grade carbenicillin disodium salt (Teknova C2110) was also dissolved in the water to a final concentration of 1 mg/ml; carbenicillin was preferred for its increased stability over ampicillin (Bobrowski, M. & Borowski, E. et al., Microbiology, 68, 263-272 (1971)). Drinking water containing streptomycin was prepared fresh weekly; with the addition of a β-lactam antibiotic, it was prepared fresh every 3-4 days. […]
# [1] = test system: Sm^R E. coli MG1655 or W1655 F+; test: Eradication of sensitive E. coli colonizing the mouse gut by carbenicillin water; format: in vivo
# Description: Mouse experiments with E. coli engraftment, antibiotic water, and phage treatment. Animal procedures were approved by the University of California, San Francisco (UCSF) Institutional Animal Care and Use Committee (IACUC), and animal experiments performed were in compliance with ethical regulations. Specific pathogen free female BALB/c mice from the vendor Taconic were used for all mouse experiments. Streptomycin water was prepared by dissolving USP grade streptomycin sulfate (VWR 0382) in autoclaved tap water to a final concentration of 5 mg/ml and passing through 0.45 μm filtration units. Mice were provided streptomycin water for 1 day, followed by oral gavage of 0.2 ml containing approximately 10^9 CFU of streptomycin-resistant E. coli. Mice were kept on streptomycin water thereafter to maintain colonization. For selection with β-lactam antibiotics, USP grade ampicillin sodium salt (Teknova A9510) or USP grade carbenicillin disodium salt (Teknova C2110) was also dissolved in the water to a final concentration of 1 mg/ml; carbenicillin was preferred for its increased stability over ampicillin (Bobrowski, M. & Borowski, E. et al., Microbiology, 68, 263-272 (1971)). Drinking water containing streptomycin was prepared fresh weekly; with the addition of a β-lactam antibiotic, it was prepared fresh every 3-4 days. For phage treatment, filtered phage solutions stored at −80° C. were thawed and used directly for oral gavage. Unfiltered phage solutions were precipitated by diluting approximately 5-fold in PBS, adding 0.2 volumes phage precipitation solution (20% PEG-8000, 2.5 M NaCl), incubating for 15 min on ice, pelleting at 15,000-21,000 g for 15 min at 4° C., resuspending in PBS, centrifuging to pellet insoluble matter, and filtering through 0.45 μm. Heat-inactivated phage were prepared by incubating 1 ml aliquots at 95° C. in a water bath for 30 min. Streptomycin-treated mice colonized with Sm^R E. coli were orally gavaged with 0.2 ml of phage and placed on drinking water containing both streptomycin and carbenicillin.
# Enumeration and culture of E. coli from mouse feces. […]
# [2] = Carbenicillin bioassay of culture supernatants; conditions: co-cultures expressing β-lactamase; 4 hours of growth; detection limit approximately 2.5 μg/ml
# Description: Carbenicillin bioassay. Cultures were sampled over time, cells were pelleted at 21,000 g for 1 min, and the supernatant was transferred to a new tube and frozen at −20° C. until all timepoints were collected. The supernatants were thawed and assayed using a Kirby-Bauer disk diffusion test. An overnight culture of the indicator organism (Bacillus subtilis 168) was diluted in saline to an OD600 of 0.1. A cotton swab was dipped into this dilution and spread across LB agar, antibiotic sensitivity disks (Fisher Scientific S70150A) were overlaid using tweezers, and 20 μl of the supernatant was applied to the disk. At the same time, carbenicillin standards were prepared from 1 μg/ml to 100 μg/ml and also applied to discs. Plates were incubated overnight at 37° C. and imaged the following morning.
# gut microbiota = test: 16S rRNA gene sequencing of streptomycin-treated mice; format: in vivo; conditions: streptomycin water 5 mg/ml
# Description: 16S rRNA gene sequencing. Mouse fecal pellets were stored at −80° C. DNA was extracted from single pellets using a ZymoBIOMICS 96 MagBead DNA Kit and 16S rRNA gene sequencing was performed using a dual indexing strategy (Gohl, D. M. et al., Nat. Biotechnol. 34, 942-949 (2016)). Briefly, a 22-cycle primary PCR was performed using KAPA HiFi Hot Start DNA polymerase (KAPA KK2502) and V4 515F/806R Nextera primers. The reaction was diluted in UltraPure DNase/RNase-free water (Life Tech 0977-023) and used as template for a 10-cycle secondary (indexing) PCR using sample-specific dual indexing primers. […] The DNA was gel extracted using a MinElute Gel Extraction Kit (Qiagen 28604), quantified by qPCR using a KAPA Library Quantification Kit for Illumina Platforms (KAPA KK4824), and paired-end sequenced on the Illumina MiSeq platform. Data were processed using a 16S rRNA gene analysis pipeline (https://github.com/jbisanz/AmpliconSeq) based on QIIME2 (Bolyen, E. et al., Nat. Biotechnol. 37, 852-857 (2019)) incorporating DADA2 (Callahan, B. J. et al., Nat. Methods, 13, 581-583 (2016).), and analyzed using R packages qiime2R v0.99.23 (https://github.com/jbisanz/qiime2R), phyloseq v1.33.0 (McMurdie, P. J. & Holmes, S., PLoS One, 8, e61217 (2013)), and phylosmith v1.0.4 (Smith, S. D., Journal of Open Source Software 4, 1442 (2019)). […]
compound,measurement,setting,value
CC1(C)S[C@@H]2[C@H](NC(=O)[C@H](N)c3ccccc3)C(=O)N2[C@H]1C(=O)O [ampicillin],increase in the percent of Amp^R E. coli in feces,Sm^R MG1655 E. coli,3 orders of magnitude
CC1(C)S[C@@H]2[C@H](NC(=O)C(C(=O)O)c3ccccc3)C(=O)N2[C@H]1C(=O)O (stereo partly drawn) [carbenicillin],E. coli colonization level over the course of treatment,"[1]; all mice, below limit of detection",< 10^2 CFU/g
same,mice with recolonization when selection was lifted,[1]; carbenicillin removed on Day 7,5/6
same,median E. coli colonization level,"[1]; first day of carbenicillin in water, decreased from 9.6×10^9",2.0×10^3 CFU/gram feces
same,carbenicillin in culture supernatants,[2],not detectable
[H]/N=C(/N)N[C@H]1[C@H](O)[C@@H](O)[C@H](O[C@@H]2O[C@@H](C)[C@](O)(C=O)[C@H]2O[C@@H]2O[C@@H](CO)[C@H](O)[C@@H](O)[C@@H]2NC)[C@@H](N/C(N)=N\[H])[C@@H]1O [streptomycin],effect on gut microbial community,gut microbiota,altered gut microbial community structure while decreasing diversity and colonization level
